Data reported in US20230227499A1, “PRODRUGS OF MITOCHONDRIA-TARGETING OLIGOPEPTIDES” (Stealth Biotherapeutics Inc., priority 2020, published 2023).
“Also recorded” adds a separate entry of the source.

What was measured:
[1] = tested on: isolated mitochondria; test: Mitochondrial permeability transition (MPT) induced by Ca2+ in isolated mitochondria; conditions: pretreatment of isolated mitochondria with SS-31 10 μM (FIG. 1A)
Protocol: (§1) FIGS. 1A-1C depict that D-Arg-Dmt-Lys-Phe-NH2 (SS-31; MTP-131) inhibits mitochondrial swelling and cytochrome c release. […] Gray line, buffer; red line, SS-31. […] Swelling was measured by light scattering measured at 570 nm. FIG. 1 C depicts the comparison of SS-02 and SS-31 with cyclosporine (CsA) in inhibiting mitochondrial swelling and cytochrome c release induced by Ca2+. The amount of cytochrome c released was expressed as percent of total cytochrome c in mitochondria. Data are presented as mean±s.e., n=3.
(§2) MPT pore opening results in mitochondrial swelling. We examined the effects of (SS-31) on mitochondrial swelling, which was measured using light scattering monitored at 570 nm.

[2] = tested on: mitochondria; test: Cytochrome c release from mitochondria induced by Ca2+; conditions: FIG. 1C
Protocol: as §1, §2

[3] = tested on: isolated perfused guinea pig heart; test: Ischemia-reperfusion-induced myocardial stunning in isolated perfused guinea pig heart (Langendorff); conditions: for myocardial contractile force during ischemia-reperfusion / tolerance of ischemia versus buffer-treated hearts: SS-02 100 nM or SS-31 1 nM perfused 30 min; for myocardial contractile force during ischemia-reperfusion: 30-min global ischemia, then reperfusion (FIG. 2)
Protocol: Guinea pig hearts were rapidly isolated, and the aorta was cannulated in situ and perfused in a retrograde fashion with an oxygenated Krebs-Henseleit solution (pH 7.4) at 34° C. The heart was then excised, mounted on a modified Langendorff perfusion apparatus, and perfused at constant pressure (40 cm H20). Contractile force was measured with a small hook inserted into the apex of the left ventricle and the silk ligature tightly connected to a force-displacement transducer. Coronary flow was measured by timed collection of pulmonary artery effluent.
Hearts were perfused with buffer, 2′,6′-Dmt-D-Arg-PheLys-NH2 (SS-02) (100 nM) or D-Arg-Dmt-Lys-Phe-NH2 (SS-31) (1 nM) for 30 min and then subjected to 30 min of global ischemia Reperfusion was carried out with the same solution used prior to ischemia.

[4] = tested on: mitochondria; test: Mitochondrial swelling induced by Ca2+, light scattering at 570 nm; conditions: pretreatment with SS-31 50 μM, light scattering at 570 nm (FIG. 1B)
Protocol: as §1, §2

[5] = 30 min global ischemia, then reperfusion

Compound | onset of MPT induced by Ca2+ [1] | cytochrome c release induced by Ca2+ [2] | myocardial contractile force during ischemia-reperfusion [3] | tolerance of ischemia versus buffer-treated hearts [3, 5] | inhibition of cardiac stunning ([3]; SS-31 1 nM, 30 min global ischemia, then reperfusion) | heart rate ([3]; SS-31 1 nM, ischemia-reperfusion) | coronary flow during reperfusion ([3]; SS-31 1 nM, timed collection of pulmonary artery effluent) | mitochondrial swelling induced by Ca2+ [4]
Cc1cc(O)cc(C)c1C[C@H](CC(=O)[C@H](N)CCCNC(=N)N)C(=O)N[C@@H](CCCCN)C(=O)N[C@@H](Cc1ccccc1)C(N)=O [SS-31, D-Arg-Dmt-Lys-Phe-NH2] | has the same ability to protect against MPT; also recorded: prevents onset of MPT | has the same ability to protect against | protects myocardial contractile force | tolerated ischemia much better than buffer-treated hearts | complete inhibition of cardiac stunning | no decrease in heart rate | well-sustained throughout reperfusion | has the same ability to protect against; also recorded: inhibited mitochondrial swelling
2′,6′-Dmt-D-Arg-PheLys-NH2 [SS-02] |  |  | protects myocardial contractile force | tolerated ischemia much better than buffer-treated hearts |  |  |  | 
